Measured values: ChEMBL document CHEMBL5614447, “Innovative Drug Discovery: Targeting Cancer, Neurological Disorders, and Obesity” (ACS Med Chem Lett, 2024)

Target: Protein cereblon/DNA damage-binding protein 1 (Homo sapiens) (UniProt Q96SW2+Q16531)
Assay: Displacement of AlexaFlour-conjugated ligand from CRBN/DDB1 complex (unknown origin) incubated in 0.05% PA/0.1% BSA at room temperature for 60 mins by fluorescence polarization assay
Format: protein assay

Chain of Protein cereblon/DNA damage-binding protein 1 (Homo sapiens) (Q16531 2-1140 partner limits assumed): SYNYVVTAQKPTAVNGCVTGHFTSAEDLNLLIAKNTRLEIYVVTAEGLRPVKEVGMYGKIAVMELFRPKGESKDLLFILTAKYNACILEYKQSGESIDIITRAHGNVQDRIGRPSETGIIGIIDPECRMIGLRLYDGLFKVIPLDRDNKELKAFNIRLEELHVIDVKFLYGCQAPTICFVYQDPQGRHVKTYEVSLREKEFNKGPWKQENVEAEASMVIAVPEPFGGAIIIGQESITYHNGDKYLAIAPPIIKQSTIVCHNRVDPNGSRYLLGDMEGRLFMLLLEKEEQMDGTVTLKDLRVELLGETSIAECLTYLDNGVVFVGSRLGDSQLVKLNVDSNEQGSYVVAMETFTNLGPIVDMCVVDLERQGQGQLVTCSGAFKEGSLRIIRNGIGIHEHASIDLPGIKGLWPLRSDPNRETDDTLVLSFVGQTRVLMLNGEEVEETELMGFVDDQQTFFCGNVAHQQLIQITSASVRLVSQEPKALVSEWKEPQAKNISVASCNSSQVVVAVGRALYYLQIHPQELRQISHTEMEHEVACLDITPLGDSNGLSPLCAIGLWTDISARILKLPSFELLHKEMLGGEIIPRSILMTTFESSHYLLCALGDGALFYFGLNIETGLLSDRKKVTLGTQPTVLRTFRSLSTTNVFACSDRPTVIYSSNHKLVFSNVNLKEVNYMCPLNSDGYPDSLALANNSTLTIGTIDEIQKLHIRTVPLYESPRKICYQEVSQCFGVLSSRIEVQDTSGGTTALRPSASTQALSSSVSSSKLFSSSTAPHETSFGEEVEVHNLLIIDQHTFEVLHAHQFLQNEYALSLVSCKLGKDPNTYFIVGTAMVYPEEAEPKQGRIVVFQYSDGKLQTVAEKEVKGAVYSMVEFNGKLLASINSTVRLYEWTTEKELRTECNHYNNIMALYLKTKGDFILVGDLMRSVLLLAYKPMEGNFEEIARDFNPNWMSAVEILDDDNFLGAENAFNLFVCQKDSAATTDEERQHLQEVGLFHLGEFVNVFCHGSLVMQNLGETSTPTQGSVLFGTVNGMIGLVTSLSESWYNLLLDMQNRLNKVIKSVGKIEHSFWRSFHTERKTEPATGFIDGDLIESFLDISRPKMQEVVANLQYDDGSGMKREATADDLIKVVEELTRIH
Chain of Protein cereblon/DNA damage-binding protein 1 (Homo sapiens) (Q96SW2 whole entry): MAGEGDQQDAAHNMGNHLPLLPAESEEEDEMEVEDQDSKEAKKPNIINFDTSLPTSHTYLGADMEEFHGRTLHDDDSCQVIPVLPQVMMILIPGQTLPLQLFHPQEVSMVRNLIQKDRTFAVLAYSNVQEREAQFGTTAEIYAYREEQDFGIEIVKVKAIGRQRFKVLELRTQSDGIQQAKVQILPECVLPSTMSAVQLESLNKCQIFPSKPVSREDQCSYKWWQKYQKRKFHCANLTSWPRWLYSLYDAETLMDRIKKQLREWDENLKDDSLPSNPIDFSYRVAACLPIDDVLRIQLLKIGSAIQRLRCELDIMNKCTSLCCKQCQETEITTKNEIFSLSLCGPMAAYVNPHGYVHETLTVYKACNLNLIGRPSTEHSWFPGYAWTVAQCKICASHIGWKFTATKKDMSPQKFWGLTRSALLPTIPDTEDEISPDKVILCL

Row | Structure (SMILES) | binding affinity (displacement)
1 | O=C1CCC(N2CCOc3c([C@@H]4CCNC4)cccc32)C(=O)N1 (stereo partly drawn) | < 100 µM
2 | CN(C(=O)OC(C)(C)C)C1CCN(c2cccc3c2OCCN3[C@@H]2CCC(=O)NC2=O)CC1 | < 1 µM
3 | O=C1CCC(N2CCOc3c([C@@H]4CCCNC4)cccc32)C(=O)N1 (stereo partly drawn) | < 100 µM
4 | O=C1CCC(N2CCOc3c([C@H]4CCNC4)cccc32)C(=O)N1 (stereo partly drawn) | < 100 µM
5 | O=C1CCC(N2CCOc3c(N4CCNCC4)cccc32)C(=O)N1 (stereo not drawn) | < 100 µM
6 | CNC1CCN(c2cccc3c2O[C@@H](C)CN3C2CCC(=O)NC2=O)CC1 (stereo partly drawn) | < 100 µM
7 | CN(C(=O)OC(C)(C)C)C1CCN(c2cccc3c2OCCN3[C@H]2CCC(=O)NC2=O)CC1 | < 100 µM
8 | CNC1CCN(c2cccc3c2O[C@H](C)CN3C2CCC(=O)NC2=O)CC1 (stereo partly drawn) | < 100 µM
